In US10336746B1, “RAD51 inhibitors” (Cyteir Therapeutics, Inc., priority 2017, dated 2019):

System: Daudi cell line (AID positive)
Assay: Primary screening cell killing assay, Daudi cell line (AID positive)
Assay type: cell-based
Conditions: Homo sapiens, 168 h, cell death on Day 7, Cell-Titer Glo
Description: Primary screening was a phenotypic screen that utilized the synthetic lethal interaction between AID and RAD51 to identify compounds that were both potent and on target. AID expressing cells are dependent upon RAD51 for survival; inhibiting RAD51 in AID positive cells results in a cytotoxic effect.
The first step was to set up a cell killing assay in the Daudi cell line (AID positive). A 96 well u-bottom plate was prepared by writing the experiment number, plate number, date and initials in the top right corner of the plate lid. With a sterile 300 ml reservoir, and 25 ml serological pipette, evaporation buffer media was pipetted into reservoir in 25 ml increments. Using the liquid handler, 150 ul of evaporation buffer media was pipetted from reservoir into rows A and H, and Columns 1 and 12 of the 96 well u-bottom plate. Cell cultures were counted to obtain the density of cells per ml, and the culture viability. The cell density information was used to obtain 1,000,000 cells from culture using a 5 mL serological pipette into an epi tube. The cell density information from the culture was used to calculate the number of cells and volume of media needed for the assay to seed 1250 cells in 130 ul of media per available culture well in the 96 well u-bottom plate. Rows B through F were used for cells (50 wells in total), with row G left for an empty media control. The calculation was overestimated by 10 mL to account for the dead volume in the 300 ml reservoir. Once the media volume was calculated, the appropriate volume of media was pipetted in 25 mL increments into the 250 mL bottle using a 25 mL serological pipette. The 250 ml bottle was capped tightly, and placed into a 37° C. water bath for 2 minutes. While the culture media was warming, 10 mL of fresh media was pipetted from the 500 mL culture media bottle into a sterile 25 mL reservoir. Using the Eppendorf multichannel pipette, 130 ul of media was pipetted from the 25 mL reservoir into row G of the 96 well u-bottom plate. Once the 250 mL bottle of media was warmed, the volume of culture needed was pipetted into the bottle, and mixed gently with a 25 mL serological pipette as to not create bubbles, and then the contents of the bottle were pipetted into a new 300 mL reservoir. Using the liquid handler, 130 ul of culture was pipetted from the 300 mL reservoir into rows B through F of the 96 well u-bottom plate. Once the culture was added, the plate was placed into a 37° C. incubator until the compound master plate was prepared for use.
Two 96 well u-bottom plates were prepared by writing the master plate name in the upper right corner of the plate lid. Labeling one DMSO master and the other Media Master. The compounds of interest were obtained from the laboratory freezer, and placed into a 25 well storage box with a lid, and set the box aside. The compounds were vortexed after thawing but before use. Using an automatic multichannel pipette, 20 ul of 100% DMSO was pipetted into wells B3-B11 through G3-G11 of the DMSO master plate. For each compound on the master plate, 50 ul of the compound were pipetted in the appropriate well of row 2 (reference plate map to determine appropriate well). A serial dilution was prepared beginning by aspirating 20 ul from row 2 and mixing with row 3, repeating until row 11 was reached. Using the liquid handler, 194 ul of Daudi media was dispensed into wells B2-B11 through G2-G11 of the Media master plate. Using the liquid handler, 6 ul from the DMSO master plate was aspirated and dispensed into the media master plate, mixing 100 ul twice.
Compounds from master plate were then added to the culture plate. The culture plates were removed from the incubator, and set inside the biosafety cabinet. Using a liquid handler, 20 ul from wells B2 to B11 through G2 to G11 of master plate were aspirated, and dispensed into wells B2 to B11 through G2 to G11 of culture plate. This set was continued with each culture plate. […]

CN1CCC[C@H]1COC(=O)Nc1ccc(-c2cnc(N3CCC(OC(=O)NCc4ccccc4)CC3)s2)c(S(=O)(=O)NC(C)(C)C)c1 [Ex. 1, (S)-(1-methylpyrrolidin-2-yl)methyl (4-(2-(4-((benzylcarbamoyl)oxy)piperidin-1-yl)thiazol-5-yl)-3-(N-(tert-butyl)sulfamoyl)phenyl)carbamate] was tested, and the EC50 was > 1000 nM.
In the case of CN1CCC[C@@H]1COC(=O)Nc1ccc(-c2cnc(N3CCC(OC(=O)NCc4ccccc4)CC3)s2)c(S(=O)(=O)NC(C)(C)C)c1 [Ex. 2, [1-[5-[2-(tert-butylsulfamoyl)-4-[[(2R)-1-methylpyrrolidin-2-yl]methoxycarbonylamino]phenyl]thiazol-2-yl]-4-piperidyl] N-benzylcarbamate], the EC50 is reported as > 1000 nM.
For CC(C)OC(=O)N1CCN(c2ncc(-c3ccc(NC(=O)OCc4ccccc4)cc3S(=O)(=O)NC(C)(C)C)s2)CC1 [Ex. 6, isopropyl 4-[5-[4-(benzyloxycarbonylamino)-2-(tert-butylsulfamoyl)phenyl]thiazol-2-yl]piperazine-1-carboxylate], the EC50 was > 1000 nM.
In the case of CC(C)OC(=O)Nc1ccc(-c2cnc(C3CCC(NC(=O)OC[C@H]4CCCN4C)CC3)s2)c(S(=O)(=O)NC(C)(C)C)c1 (stereo partly drawn) [Ex. 8, [(2R)-1-methylpyrrolidin-2-yl]methyl N-[4-[5-[2-(tert-butylsulfamoyl)-4-(isopropoxycarbonylamino)phenyl]thiazol-2-yl]cyclohexyl]carbamate], the EC50 is reported as > 1000 nM.
Molecule CC(C)OC(=O)Nc1ccc(-c2cnc(C3CCC(NC(=O)OC[C@@H]4CCCN4C)CC3)s2)c(S(=O)(=O)NC(C)(C)C)c1 (stereo partly drawn) [Ex. 9, isopropyl (3-(N-(tert-butyl)sulfamoyl)-4-(2-((1S,4r)-4-(((((S)-1-methylpyrrolidin-2-yl)methoxy)carbonyl)amino)cyclohexyl)thiazol-5-yl)phenyl)carbamate] has an EC50 of 100 to 1000 nM.
CN1CCC[C@@H]1COC(=O)NC1CCC(c2ncc(-c3ccc(NC(=O)NCc4ccccc4)cc3S(=O)(=O)NC(C)(C)C)s2)CC1 (stereo partly drawn) [Ex. 11, [(2R)-1-methylpyrrolidin-2-yl]methyl N-[4-[5-[4-(benzylcarbamoylamino)-2-(tert-butylsulfamoyl)phenyl]thiazol-2-yl]cyclohexyl]carbamate] showed an EC50 of 100 to 1000 nM.
For CN1CCC[C@H]1COC(=O)N[C@H]1CC[C@H](c2ncc(-c3ccc(NC(=O)NCc4ccccc4)cc3S(=O)(=O)NC(C)(C)C)s2)CC1 [Ex. 12, ((S)-1-methylpyrrolidin-2-yl)methyl ((1r,4S)-4-(5-(4-(3-benzylureido)-2-(N-(tert-butyl)sulfamoyl)phenyl)thiazol-2-yl)cyclohexyl)carbamate], the EC50 was 100 to 1000 nM.
In the case of CC(C)OC(=O)N[C@H]1CC[C@H](c2ncc(-c3ccc(NC(=O)NCc4ccncc4)cc3S(=O)(=O)NC(C)(C)C)s2)CC1 [Ex. 22, trans-isopropyl N-[4-[5-[2-(tert-butylsulfamoyl)-4-(4-pyridylmethylcarbamoylamino)phenyl]thiazol-2-yl]cyclohexyl]carbamate], the EC50 is reported as 100 to 1000 nM.
For CC(C)OC(=O)N[C@H]1CC[C@H](c2ncc(-c3ccc(NC(=O)NCc4ccc(F)cc4)cc3S(=O)(=O)NC(C)(C)C)s2)CC1 [Ex. 23, isopropyl ((1r,4r)-4-(5-(2-(N-(tert-butyl)sulfamoyl)-4-(3-(4-fluorobenzyl)ureido)phenyl)thiazol-2-yl)cyclohexyl)carbamate], the EC50 was ≤ 100 nM.
In the case of CC(C)OC(=O)N[C@H]1CC[C@H](c2ncc(-c3ccc(NC(=O)NCc4cccnc4)cc3S(=O)(=O)NC(C)(C)C)s2)CC1 [Ex. 25, isopropyl ((1r,4r)-4-(5-(2-(N-(tert-butyl)sulfamoyl)-4-(3-(pyridin-3-ylmethyl)ureido)phenyl)thiazol-2-yl)cyclohexyl)carbamate], the EC50 is reported as ≤ 100 nM.
With CC(C)OC(=O)N[C@H]1CC[C@H](c2ncc(-c3ccc(NC(=O)OCC4CCNCC4)cc3S(=O)(=O)NC(C)(C)C)s2)CC1 [Ex. 33, trans-4-piperidylmethyl N-[3-(tert-butylsulfamoyl)-4-[2-[4-(isopropoxycarbonylamino)cyclohexyl]thiazol-5-yl]phenyl]carbamate] the EC50 was > 1000 nM.
